Laboratory results reported in patent US8828993B2, “Psychotropic agents having glutamate NMDA activity” (Ramot At Tel-Aviv University Ltd., priority 2006, dated 2014).
“Also recorded” adds a separate entry of the source. Where a name gives a salt, the structure may show the parent alone.

Tests used:
[1] = system: rats; test: Morris Water Maze, spatial cognition; type: in vivo
Method: (§1) The Morris Water Maze is a well known test aimed to assess spatial cognitive tasks (Anger, et al., Animal test systems to study behavioral dysfunctions of neurodegenerative disorders, Neurotoxicology, 12, 403-13 (1991)). The maze consists of a circular pool measuring 1.80 m in diameter 60 cm in height. The pool was filled with water (21±1° C.) to a depth of 30 cm. A circular hidden escape platform (10 cm in diameter) was placed just below the water surface. The test room contained several permanent extra maze cues such as the rat housing rack, laboratory table, posters on the walls, etc.
as §1, with “tasks.” for “tasks (Anger, et al., Animal test systems to study behavioral dysfunctions of neurodegenerative disorders, Neurotoxicology, 12, 403-13 (1991)).”
In the experiment rats were given Compound 1 orally on day 1 and the first test begun 90 minute later, six trials per day, for 3 consecutive days, to find the hidden platform (acquisition phase). The escape latency, i.e., the time required by the rat to find and climb onto the platform, was recorded for up to 120 sec. Each rat was allowed to remain on the platform for 30 sec, after which it was removed to its home cage.
A video camera was placed above the center of the pool for tracking the rat, and a video tracking system (Noldus) with online digital output directly fed data into a computer. Data were analyzed using EthoVision automated tracking system software (Noldus).

[2] = system: human glioma U83 cell; conditions: 24 h
Method: Determination of cell viability was performed in cells (10,000/well) using neutral red method. Absorption of neutral red by lysosomes caused coloring of living cells. Quantitative analysis was performed by colorimetric assay (ELISA reader at 550 nm).

[3] = system: mice; test: Elevated plus maze; type: in vivo
Source text: The elevated plus maze is a widely used method to test anxiety in rodents (Pellow, et al., Pharmacol. Biochem. Behav., 24, 525-529 (1986)). The apparatus was made of wood and painted black, with two opposing open arms and two opposite enclosed arms of the same size. The arms were attached to a central square shaped in a plus sign. The whole apparatus was placed 50 cm above the floor. Anxious animals refrain from entering the open arm and prefer the closed arm.
In a typical experiment, Balb/c male mice were administered orally with 10 and 20 mg/kg of Compound 1 or Compound 6 and with a vehicle or with diazepam (1 mg/kg) administered per os (p.o.) 90 minutes before they were placed in the center of the maze. The frequency to the open aims, the time spent in the different arms, the velocity and number of rearings of the animals in each zone were recorded (Noldus).
Male Balb/c mice were used. Animals were transferred to the behavior room 24 hr before the experiment. Compound 1 or diazepam were administered orally 90 minutes before testing. Each treatment group included 5 animals.
Male Balb/c mice were used. Animals were transferred to the behavior room 24 hr before the experiment. Compound 6 (3, 9, or 27 mg/kg) or vehicle were administered orally 90 minutes before testing. Each treatment group included 5 animals.

[4] = system: MK-801-induced hyperactivity in mice; test: MK-801-induced hyperactivity in open field; type: in vivo
Method: MK-801-Induced Stereotype Behavior in Rats (in Open Field)—
MK-801 is an analogue of PCP which inhibits NMDA receptors and elicits hyperlocomotion and stereotypic behavior in rodents and is used as an animal model of schizophrenia (Stephen, et al., Topiramate antagonizes MK-801 in an animal model of schizophrenia, Eur. J. Pharmacol. 449, 2002, 121-5). For experimentation, naïve Balb/c mice were used. MK-801 (0.15 mg/kg i.p) was administered 40 minutes after Compound 1 (or any one of the other compounds of the invention) or a vehicle, and 20 minutes prior to placing the mouse in an open field.
Animals placed in the open field were followed for 60 minutes and their distance moved, velocity, duration of immobility, and number of rearing events were registered using the Noldus system.
As stated above, MK-801 inhibits NMDA receptors and elicits hyperlocomotion. Therefore, where an antagonism of the hyperactivity-induced by the MK-801 is observed upon administration of a compound of the invention, it is an indication as to the positive modulation of the NMDA activity. In other words, such a compound may be considered as useful in the treatment of schizophrenia.
The effect of Compound 6 on the distance moved in Balb/c mice exposed to MK-801 ([…]) i.p. and to Compound 6 (up to 12.5 mg/kg, i.p.) administered 1 hr prior to MK-801 was also tested.
As stated above, MK-801 (an NMDA receptor antagonist) is a widely accepted animal model for schizophrenia. The experiment was conducted with Balb/c male mice (Harlan Il), 6 per group. Compound 1 (50 mg/kg) was administered i.p. (1 hr before experimentation), to mice alone or combined with MK-801 (0.15 mg/kg, i.p.) administered 20 minutes prior to placing the mice individually in an open field for 60 minutes. The hyper-active behavior expressed by hyperlocomotion, velocity, strong mobility, number of rearing was evaluated using the Noldus system, each point represents the mean+/−6 determinations.

[5] = male Balb/c mice, 20 mg/kg oral
[6] = male Balb/c mice, oral, diazepam 1 mg/kg

SMILES | latency to platform (task execution) ([1]; 20 mg/kg po, second day) | latency to platform (learning of the spatial task) ([1]; rats, 20 mg/kg po on day 1, first day) | latency to platform ([1]; rats, 10 and 20 mg/kg po, third day, between all groups) | concentration toxic to human glioma cells (not toxic up to) [2] [µM] | anxiolytic activity (overall conclusion) ([3]; 20 mg/kg) | time spent in the center [3, 5] | time spent in the closed and the open arm [3, 5] | frequency to the open arm and the center ([3]; male Balb/c mice, 20 mg/kg oral, 90 minutes before testing) | number of rearings in the open arm [3, 6] | velocity [3, 6] | vertical motility (number of rearings), compound alone ([4]; Balb/c male mice, 50 mg/kg i.p.) | inhibition of rearings presented by MK-801 ([4]; Balb/c male mice, 50 mg/kg i.p. combined with MK-801 0.15 mg/kg i.p.) | basal and MK-801-induced stimulation of horizontal motility (distance moved, velocity, strong mobility) ([4]; Balb/c male mice, 50 mg/kg i.p., MK-801 0.15 mg/kg i.p., open field 60 minutes) | hyperlocomotion effect of MK-801 ([4]; mice, 30 and 50 mg/kg i.p.) | increased frequency to the center of animals treated with MK-801 ([4]; mice, 30 and 50 mg/kg i.p.) | time spent in the center (zone 3), MK-801 treated ([4]; mice, 30 and 50 mg/kg i.p.) | time spent in the closed arm ([3]; male Balb/c mice, 3, 9 and 27 mg/kg orally) | time spent in the open arms ([3]; male Balb/c mice, 3, 9 and 27 mg/kg orally, 90 minutes before testing, trihydrochloride salt) | time spent in the center ([3]; male Balb/c mice, 3, 9 and 27 mg/kg orally, trihydrochloride salt) | motility (distance moved) of MK-801 treated mice ([4]; Balb/c mice, up to 12.5 mg/kg i.p. 1 hr prior to MK-801 (15 mg/kg) i.p.)
COC(=O)C(N)CN1CCN(C2=Nc3ccccc3Nc3sc(C)cc32)CC1 (centres unmarked) [Compound 1, 2-amino-3-[4-(2-methyl-10H-thieno[2,3-b][1,5]benzodiazepin-4-yl)-piperazin-1-yl]-propionic acid, methyl ester hydrochloride salt] | improvement | faster learning | no difference | > 100 | anxiolytic activity which resembles diazepam | increased | did not significantly affect | frequented significantly more | increased number of rearings | not | markedly suppressed | increased | clear cut decrease | inhibited in a dose related manner | did not modify | increased |  |  |  | 
CNC(CN1CCN(C2=Nc3ccccc3Nc3sc(C)cc32)CC1)C(=O)OC (centres unmarked) [Compound 6, 2-N-methylamino-3-[4-(2-methyl-10H-thieno[2,3-b][1.5]benzodiazepin-4-yl)-piperazin-1-yl]propionic acid, methyl ester trihydrochloride salt] |  |  |  |  |  |  |  |  |  |  |  |  |  |  |  |  | did not significantly affect | more time; also recorded: dose-dependently increase | less and decrease | did not cause a consistent dose dependent effect
